We go through 3 molecules from PMC10218498, “Exploring BenzylethoxyAryl Urea Scaffolds for Multitarget Immunomodulation Therapies” (International Journal of Molecular Sciences, 2023).

Where only a bound is given, the exact number is not on record here.

Data set [1] deals with HMEC-1 microtube formation. Nature of the data set: Tube formation inhibition assay on Matrigel. It counts as cell-based, human. As to conditions: HMEC-1 on Matrigel, 24 h. As for the experimental part: The capacity to inhibit the formation of a new vasculature network formed by HMEC-1 was evaluated on compounds 8 and 14 at different concentrations.
Wells of an IBIDI μ-slide angiogenesis (IBIDI, Martinsried, Germany) were coated with 15 μL of Matrigel® (10 mg/mL, BD Biosciences) at 4 °C. After gelatinization at 37 °C for 30 min, HMEC-1 cells were seeded at 2 × 10^4 cells/well in 25 μL of culture medium on top of the Matrigel and were incubated 30 min at 37 °C while are attached. Then, compounds were added and dissolved in 25 μL of culture medium, and after 24 h of incubation at 37 °C, tube formation was evaluated.

Data set [2] concerns HT-29 (colon adenocarcinoma). Put plainly: MTT cell proliferation assay, HT-29. The conditions noted are these: Homo sapiens, HT-29; MTT, 48 h of treatment; read-out: IC50 HT-29. The data set is classed as cell-based, human. As for the experimental part:
(§1) The 3-(4,5-dimethylthiazol-2-yl)-2,5-diphenyltetrazolium bromide (MTT; Sigma Chemical Co.) dye reduction assay in 96-well microplates was used. […] After that, the supernatant was discarded and replaced by 100 µL of DMSO to dissolve formazan crystals. The absorbance was then read at 550 nm by spectrophotometry. For all concentrations of compound, cell viability was expressed as the percentage of the ratio between the mean absorbance of treated cells and the mean absorbance of untreated cells. Three independent experiments were performed, and the IC50 values (i.e., concentration half inhibiting cell proliferation) were graphically determined using GraphPad Prism 4 software.
For orientation: Tetrazolium assays rely on reduction of a dye to a coloured formazan, in cell work by metabolically active cells.

Data set [3] concerns A-549 (pulmonary adenocarcinoma). Nature of the data set: MTT cell proliferation assay, A-549. The conditions noted are these: Homo sapiens, A549; MTT, 48 h of treatment; read-out: IC50 A-549. It counts as cell-based, human. As for the experimental part:
as §1

Data set [4] deals with HEK-293 (human embryonic kidney cells). Put plainly: MTT cell proliferation assay, HEK-293. The data set is classed as cell-based. The conditions noted are these: HEK293, 48 h of treatment. As for the experimental part:
(§2) This assay allowed us to establish the corresponding IC50 values (expressed as the concentration, in μM, at which 50% of cell viability is achieved), shown in Table 1.
(§3) In 96-well plates, 5 × 10^3 (HT-29, MCF-7, A549, HMEC-1, Jurkat, and HEK-293) cells per well were incubated with serial dilutions of the tested compounds in a total volume of 100 μL of their respective growth media. The 3-(4,5-dimethylthiazol-2-yl)-2,5-diphenyltetrazolium bromide (MTT; Sigma Chemical Co.) dye reduction assay in 96-well microplates was used. After 2 days of incubation (37 °C, 5% CO2 in a humid atmosphere), 10 μL of MTT (5 mg/mL in phosphate-buffered saline, PBS) was added to each well, and the plate was incubated for a further 3 h (37 °C). After that, the supernatant was discarded and replaced by 100 µL of DMSO to dissolve formazan crystals. The absorbance was then read at 550 nm by spectrophotometry. For all concentrations of compound, cell viability was expressed as the percentage of the ratio between the mean absorbance of treated cells and the mean absorbance of untreated cells. Three independent experiments were performed, and the IC50 values (i.e., concentration half inhibiting cell proliferation) were graphically determined using GraphPad Prism 4 software.

Data set [5] relates to human microvessel endothelial cells (HMEC-1). Nature of the data set: MTT cell proliferation assay, HMEC-1. It counts as cell-based. The conditions noted are these: 48 h of treatment. As for the experimental part:
as §2, §3

Data set [6] has as its system MCF-7 (Human breast cancer adenocarcinoma). Put plainly: MTT cell proliferation assay, MCF-7. The data set is classed as cell-based. As to conditions: Homo sapiens, MCF7; MTT; read-out: IC50 (μM) MCF-7. As for the experimental part:
as §1

Data set [7] has as its target T1, PD-L1 (Homo sapiens, UniProt Q9NZQ7). Nature of the data set: PD-L1 relative quantification by flow cytometry in HT-29. It counts as cell-based. More on the design: endogenous in cells; host or cells: HT-29. The conditions noted are these: HT-29, 20 µM, 24 h, relative to DMSO control = 100. As for the experimental part:
(§4) To assess the effect of the selected compounds on the biological targets PD-L1 and VEFGR-2, we performed the study on both cancer cell lines HT-29 and A-549 and by flow cytometry technique. […] For these assays, cells were incubated for 24 h in the presence of the corresponding compounds at 20 µM concentration.
(§5) To study the effect of the compounds on every biological target in cancer cell lines, the compounds were used at 20 µM dose.
(§6) For the assay, 10^5 cells per well were incubated for 24 h with the corresponding dose of the tested compound in a total volume of 500 μL of their growth media.
(§7) On the one hand, to detect total PD-L1 and VEGFR-2, after the cell treatments, they were collected and fixed with 4% in PBS paraformaldehyde. After fixation, a treatment with 0.5% in PBS TritonTM X-100 was performed, and finally, cells were stained with FITC Mouse monoclonal Anti-Human VEGFR-2 (ab184903) and Alexa Fluor® 647 Rabbit monoclonal Anti-PD-L1 (ab215251).
(§8) On the other hand, to detect membrane PD-L1 and VEGFR-2, the process was the same, avoiding the treatment with 0.5% in PBS TritonTM X-100 step.

Data set [8] concerns the target T1, PD-L1. Nature of the data set: PD-L1 relative quantification by flow cytometry in A-549. The data set is classed as cell-based. Also on record: endogenous in cells; host or cells: A-549. The conditions noted are these: A-549, 20 µM, 24 h, relative to DMSO control = 100. As for the experimental part:
as §4, §5, §6, §7, §8
On the technique in general: Flow cytometry measures light scatter and fluorescence of single cells or particles in a stream.

Data set [9] has as its target T1, PD-L1. Put plainly: PD-L1 relative quantification by flow cytometry in MCF-7. The data set is classed as cell-based. More on the design: endogenous in cells; host or cells: MCF-7. As to conditions: MCF-7, 20 µM, 24 h, control = 100. As for the experimental part:
In view of the good results obtained for these selected compounds, we decided to extend the study to a third cancer cell line, MCF-7 (Human breast cancer adenocarcinoma). First, we determined the IC50 values of the derivatives and their SI indexes (see Table 4). Then, we determined the effect of the selected compounds on the biological targets, PD-L1 and VEGFR-2, by flow cytometry. […] As usually, the assay was performed at a concentration of 20 µM for 24 h.
as §5, §6, §7, §8

For the next data set, the system named is Jurkat T cells. Put plainly: MTT cell proliferation assay, Jurkat T cells. The data set is classed as cell-based. The conditions noted are these: Homo sapiens, 48 h of treatment. As for the experimental part:
as §2, §3

In the next data set the test system is LCK. Nature of the data set: Immunoblotting of OT-1 CTL signaling proteins: LCK. The data set is classed as cell-based, mice. The conditions noted are these: OT-1, 20 μM, 24 h. The source says: (§9) We next studied the effect of our compounds on the signaling cascade downstream of the TCR. […] However, both the expression and phosphorylation of LCK were increased in response to all compounds. The effects on ZAP70 and LAT were more complex, with opposing effects on total protein expression versus phosphorylation. Thus, all compounds modulated signaling downstream of the TCR in a manner that is likely to impact T-cell activation and activity.
(§10) CD8+ cells were obtained from the inguinal, axillary, brachial, and mesenteric lymph nodes previously collected from OT-1 mice. Lymph node cells were isolated by mashing through a […] cell strainer. Cells were resuspended in IMDM cell media at a concentration of 0.3 million cells/mL. N4 ovalbumin peptide was added at a concentration of 10 nM, and cells were incubated for 48 h at 5% CO2, 37 °C. On day 2 from recollection, cells were pelleted at 1300 rpm for 5 min and washed with PBS to remove N4 peptide. The cell pellet was resuspended in fresh IMDM media in a new flask in a 0.3 million cells/mL and supplemented with IL-2 at 20 ng/mL. After incubation for a further 48 h (day 4), cells were re-seeded in fresh IMDM media at a concentration of 0.3 million cells/mL supplemented with IL-2 at 20 ng/mL. Cells were cultured for a further 48 h prior to use on day 6 in functional assays.
(§11) To study the effect of the compounds in the signaling pathway of CTLs, the compound was incubated for 24 h at 20 μM. After this time, cells were collected and washed twice in PBS and lysed in radioimmunoprecipitation assay (RIPA) lysis buffer (50 mM tris-HCl at pH 7.4, 150 mM sodium chloride, 5 mM EGTA, 0.1% SDS, 1% NP-40, and 1% deoxycholate) supplemented with a protease and phosphatase inhibitor cocktail (mini complete ULTRA Protease tablet and phosSTOP tablet from Roche, Basel, Switzerland). Lysates were clarified by high-speed centrifugation (17,000 rpm for 15 min at 4 °C). Protein concentration was measured using a Micro BCA Protein Assay (Thermo Scientific, Waltham, MA, USA), and 10 μg to 30 μg of total protein were supplemented with 2X SDS sample buffer [tris (pH 6.8), 20% glycerol, 5% SDS, b-mercaptoethanol, and bromophenol blue) and boiled at 95 °C for 5 min. […] Bound Ab was detected by incubation with anti-rabbit and anti-mouse horseradish peroxidase secondary Ab (Cell Signaling Technology) and visualized using the Bio-Rad ChemiDoc MP Imaging System.
In general terms: Immunoblotting shows a protein as a band on a membrane.

For another data set, the system named is Fyn. Nature of the data set: Immunoblotting of OT-1 CTL signaling proteins: FYN. It counts as cell-based, mice. The conditions noted are these: OT-1, 20 μM, 24 h.
Excerpt: as §9, §10, §11

T1 sequence (Q9NZQ7 19-290): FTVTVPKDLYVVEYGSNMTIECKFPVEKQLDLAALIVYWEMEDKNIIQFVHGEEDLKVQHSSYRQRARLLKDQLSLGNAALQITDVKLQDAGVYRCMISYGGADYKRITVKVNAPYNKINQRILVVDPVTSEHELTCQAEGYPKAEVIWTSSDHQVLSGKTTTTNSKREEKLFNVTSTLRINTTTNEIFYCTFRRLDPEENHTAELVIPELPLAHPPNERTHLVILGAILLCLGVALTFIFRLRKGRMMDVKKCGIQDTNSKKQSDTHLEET

`CCN(CC)CCNC(=O)c1c(C)[nH]c(/C=C2\C(=O)Nc3ccc(F)cc32)c1C` [Sunitinib, sunitinib, reference compound]: in [1], the “Minimum Active Conc. (inhibition of microtube formation)” value was found to be 3 µM.
The IC50 is the concentration that inhibits the measured activity by half. As for `CNC(=O)c1cc(Oc2ccc(NC(=O)Nc3ccc(Cl)c(C(F)(F)F)c3)cc2)ccn1` [Sorafenib, sorafenib, reference compound], the IC50 in data set [2] came to 17 ± 4 µM; in data set [3] it was 27 ± 2 µM; in [4], 5 ± 0.7 µM; in [5], 34 ± 3 µM; in data set [6] it was 14 ± 4 µM. In addition, the “Minimum Active Conc. (inhibition of microtube formation)” value in data set [1] stood at 10 µM. Besides, the entries for the “Total PD-L1 (%)” value on PD-L1 [7] and on PD-L1 [8] were 96 ± 49% and 102 ± 10%, respectively. Besides, the “% PD-L1 Memb.” value at PD-L1 [9] is 89 ± 2%. Moreover, the “% PD-L1 Total” value on PD-L1 [9] came to 80 ± 13%.
For orientation: melting point means the temperature, or range, at which the solid turns liquid. `COc1ccc(COc2cccc(NC(=O)Nc3cccc(Br)c3)c2)cc1` [Compound 9] returned a melting point of 198.5 °C. The IC50 in data set [2] stood at 25 ± 2 µM. In addition, the IC50 in [3] was found to be 3.9 ± 0.4 µM. In addition, the IC50 in data set [4] was 0.7 ± 0.3 µM. The IC50 in the data set on Jurkat T cells was > 100 µM. For the same molecule, in data set [5], the IC50 is > 100 µM. Also, in the data set with LCK, the “LCK protein expression (Western blot quantification)” value is given as 180, the “pY394-LCK protein expression (Western blot quantification)” value is recorded as 175 and the “pY505-LCK protein expression (Western blot quantification)” value is given as 154. Besides, the “FYN protein expression (Western blot quantification)” value with Fyn was determined as 108.
